Data published in patent publication US9802927B2, “Oxadiazine compounds and methods of use thereof” (Denali Therapeutics, Inc., priority 2015, dated 2017).

The compounds below were run on Aβ42 (assay: In vitro cell screening assay in H4 cells expressing human APP751: Aβ42 by sandwich ELISA). Settings: Homo sapiens, compounds 0.003-10 μM, incubated overnight (16-18 h), sandwich ELISA of supernatant.
Assay type: cell-based
In short: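 H4 neuroglioma cells stably expressing wild-type human APP751, switched to Pro293 medium and treated with compounds (0.003-10 μM, 0.33% DMSO) for 16-18 h at 37 °C. Supernatant Aβ42 quantified by sandwich ELISA (C-terminal capture, 4G8-HRP detection, A450); EC50 by sigmoidal fit normalized to DMSO and DAPT controls.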
Work on `COc1nc(C2=NOCC(c3cn(C)c4cccc(C#N)c34)N2)ccc1-n1cnc(C)c1` (single isomer, unassigned; (+)) [Example 247A, (+)-3-(3-(6-methoxy-5-(4-methyl-1H-imidazol-1-yl)pyridin-2-yl)-5,6-dihydro-4H-1,2,4-oxadiazin-5-yl)-1-methyl-1H-indole-4-carbonitrile] yielded an EC50 of 0.0471 µM. For `COc1cc(Cl)c2c(C3CON=C(c4ccc(-n5cnc(C)c5)c(OC)n4)N3)cn(C)c2c1` (single isomer, unassigned; (+)) [Example 261A, (+)-5-(4-chloro-6-methoxy-1-methyl-1H-indol-3-yl)-3-(6-methoxy-5-(4-methyl-1H-imidazol-1-yl)pyridin-2-yl)-5,6-dihydro-4H-1,2,4-oxadiazine], the EC50 was 0.0387 µM.

Same assay, conditions: compounds 0.003-10 μM, incubated overnight (16-18 h), sandwich ELISA of supernatant
For `COc1nc(C2=NOCC(c3nn(C)c4ccc(C(F)(F)F)cc34)N2)ccc1-n1cnc(C)c1` (single isomer, unassigned; (+)) [Example 241B, (+)-3-(6-methoxy-5-(4-methyl-1H-imidazol-1-yl)pyridin-2-yl)-5-(1-methyl-5-(trifluoromethyl)-1H-indazol-3-yl)-5,6-dihydro-4H-1,2,4-oxadiazine], the EC50 was 0.0051 µM. Compound `COc1nc(C2=NOCC(c3cccc(OC(F)(F)F)c3)N2)ccc1-n1cnc(C)c1` (single isomer, unassigned; (+)) [Example 242B, (+)-3-(6-methoxy-5-(4-methyl-1H-imidazol-1-yl)pyridin-2-yl)-5-(3-(trifluoromethoxy)phenyl)-5,6-dihydro-4H-1,2,4-oxadiazine] has an EC50 of 0.0185 µM. `COc1nc(C2=NOCC(c3ccc(C4CC4)c(Cl)c3)N2)ccc1-n1cnc(C)c1` (single isomer, unassigned; (+)) [Example 243B, (+)-5-(3-chloro-4-cyclopropylphenyl)-3-(6-methoxy-5-(4-methyl-1H-imidazol-1-yl)pyridin-2-yl)-5,6-dihydro-4H-1,2,4-oxadiazine] was tested, and the EC50 was 0.0132 µM. For `COc1nc(C2=NOCC(c3cccc(Cl)c3)N2)ccc1-n1cnc(C)c1` (single isomer, unassigned; (+)) [Example 244B, (+)-5-(3-chlorophenyl)-3-(6-methoxy-5-(4-methyl-1H-imidazol-1-yl)pyridin-2-yl)-5,6-dihydro-4H-1,2,4-oxadiazine], the EC50 was 0.0263 µM. `COc1nc(C2=NOCC(c3cn(C)c4ccc(C#N)cc34)N2)ccc1-n1cnc(C)c1` (single isomer, unassigned; (+)) [Example 245B, (+)-3-(3-(6-methoxy-5-(4-methyl-1H-imidazol-1-yl)pyridin-2-yl)-5,6-dihydro-4H-1,2,4-oxadiazin-5-yl)-1-methyl-1H-indole-5-carbonitrile] gave an EC50 of 0.0185 µM. `COc1nc(C2=NOCC(C3Cc4ccccc4C3)N2)ccc1-n1cnc(C)c1` (single isomer, unassigned; (+)) [Example 246B, (+)-5-(2,3-dihydro-1H-inden-2-yl)-3-(6-methoxy-5-(4-methyl-1H-imidazol-1-yl)pyridin-2-yl)-5,6-dihydro-4H-1,2,4-oxadiazine] gave an EC50 of 0.0257 µM. With `COc1nc(C2=NOCC(c3ccc4c(c3)CCC4)N2)ccc1-n1cnc(C)c1` (single isomer, unassigned; (+)) [Example 248B, (+)-5-(2,3-dihydro-1H-inden-5-yl)-3-(6-methoxy-5-(4-methyl-1H-imidazol-1-yl)pyridin-2-yl)-5,6-dihydro-4H-1,2,4-oxadiazine] the EC50 was 0.0101 µM. `COc1nc(C2=NOCC(c3cn(C)c4cc(C#N)ccc34)N2)ccc1-n1cnc(C)c1` (single isomer, unassigned; (+)) [Example 249B, (+)-3-(3-(6-methoxy-5-(4-methyl-1H-imidazol-1-yl)pyridin-2-yl)-5,6-dihydro-4H-1,2,4-oxadiazin-5-yl)-1-methyl-1H-indole-6-carbonitrile] showed an EC50 of 0.0302 µM. For `COc1ccc2c(c1)c(C1CON=C(c3ccc(-n4cnc(C)c4)c(OC)n3)N1)cn2C` (single isomer, unassigned; (+)) [Example 250B, (+)-5-(5-methoxy-1-methyl-1H-indol-3-yl)-3-(6-methoxy-5-(4-methyl-1H-imidazol-1-yl)pyridin-2-yl)-5,6-dihydro-4H-1,2,4-oxadiazine], the EC50 was 0.0158 µM. In the case of `COc1nc(C2=NOCC(c3cn(C)c4cccc(OC)c34)N2)ccc1-n1cnc(C)c1` (single isomer, unassigned; (+)) [Example 252B, (+)-5-(4-methoxy-1-methyl-1H-indol-3-yl)-3-(6-methoxy-5-(4-methyl-1H-imidazol-1-yl)pyridin-2-yl)-5,6-dihydro-4H-1,2,4-oxadiazine], the EC50 is reported as 0.0363 µM. `COc1nc(C2=NOCC(c3cn(C)c4cc(Cl)cc(OC)c34)N2)ccc1-n1cnc(C)c1` (single isomer, unassigned; (+)) [Example 254B, (+)-5-(6-chloro-4-methoxy-1-methyl-1H-indol-3-yl)-3-(6-methoxy-5-(4-methyl-1H-imidazol-1-yl)pyridin-2-yl)-5,6-dihydro-4H-1,2,4-oxadiazine] was tested, and the EC50 was 0.0129 µM. `COc1cc2c(cc1Cl)c(C1CON=C(c3ccc(-n4cnc(C)c4)c(OC)n3)N1)cn2C` (single isomer, unassigned; (+)) [Example 255B, (+)-5-(5-chloro-6-methoxy-1-methyl-1H-indol-3-yl)-3-(6-methoxy-5-(4-methyl-1H-imidazol-1-yl)pyridin-2-yl)-5,6-dihydro-4H-1,2,4-oxadiazine] showed an EC50 of 0.009 µM. In the case of `COc1nc(C2=NOCC(c3cn(C)c4cc(S(C)(=O)=O)ccc34)N2)ccc1-n1cnc(C)c1` (single isomer, unassigned; (+)) [Example 256B, (+)-3-(6-methoxy-5-(4-methyl-1H-imidazol-1-yl)pyridin-2-yl)-5-(1-methyl-6-(methylsulfonyl)-1H-indol-3-yl)-5,6-dihydro-4H-1,2,4-oxadiazine], the EC50 is reported as 0.422 µM. `COc1nc(C2=NOCC(c3cn(C)c4cc(F)c(C)cc34)N2)ccc1-n1cnc(C)c1` (single isomer, unassigned; (+)) [Example 257B, (+)-5-(6-fluoro-1,5-dimethyl-1H-indol-3-yl)-3-(6-methoxy-5-(4-methyl-1H-imidazol-1-yl)pyridin-2-yl)-5,6-dihydro-4H-1,2,4-oxadiazine] showed an EC50 of 0.0049 µM. For `COc1ccc2c(C3CON=C(c4ccc(-n5cnc(C)c5)c(OC)n4)N3)cn(C)c2c1` (single isomer, unassigned; (+)) [Example 258B, (+)-5-(6-methoxy-1-methyl-1H-indol-3-yl)-3-(6-methoxy-5-(4-methyl-1H-imidazol-1-yl)pyridin-2-yl)-5,6-dihydro-4H-1,2,4-oxadiazine], the EC50 was 0.0235 µM. `COc1nc(C2=NOCC(c3cc4cc(C(F)(F)F)ccc4o3)N2)ccc1-n1cnc(C)c1` (single isomer, unassigned; (+)) [Example 259B, (+)-3-(6-methoxy-5-(4-methyl-1H-imidazol-1-yl)pyridin-2-yl)-5-(5-(trifluoromethyl)benzofuran-2-yl)-5,6-dihydro-4H-1,2,4-oxadiazine] gave an EC50 of 0.009 µM. `COc1nc(C2=NOCC(c3cc4ccc(C(F)(F)F)cc4o3)N2)ccc1-n1cnc(C)c1` (single isomer, unassigned; (+)) [Example 260B, (+)-3-(6-methoxy-5-(4-methyl-1H-imidazol-1-yl)pyridin-2-yl)-5-(6-(trifluoromethyl)benzofuran-2-yl)-5,6-dihydro-4H-1,2,4-oxadiazine] showed an EC50 of 0.0048 µM. `COc1nc(C2=NOCC(c3ccc(C(F)(F)F)c(Cl)c3)N2)ccc1-n1cnc(C)c1` (single isomer, unassigned; (+)) [Example 262B, (+)-5-(3-chloro-4-(trifluoromethyl)phenyl)-3-(6-methoxy-5-(4-methyl-1H-imidazol-1-yl)pyridin-2-yl)-5,6-dihydro-4H-1,2,4-oxadiazine] gave an EC50 of 0.01 µM. `COc1nc(C2=NOCC(c3cn(C)c4ncc(Cl)cc34)N2)ccc1-n1cnc(C)c1` (single isomer, unassigned; (+)) [Example 264B, (+)-5-(5-chloro-1-methyl-1H-pyrrolo[2,3-b]pyridin-3-yl)-3-(6-methoxy-5-(4-methyl-1H-imidazol-1-yl)pyridin-2-yl)-5,6-dihydro-4H-1,2,4-oxadiazine] gave an EC50 of 0.0095 µM. In the case of `COc1nc(C2=NOCC(c3cn(C)c4ncc(C5CC5)cc34)N2)ccc1-n1cnc(C)c1` (single isomer, unassigned; (+)) [Example 266B, (+)-5-(5-cyclopropyl-1-methyl-1H-pyrrolo[2,3-b]pyridin-3-yl)-3-(6-methoxy-5-(4-methyl-1H-imidazol-1-yl)pyridin-2-yl)-5,6-dihydro-4H-1,2,4-oxadiazine], the EC50 is reported as 0.0155 µM. Work on `COc1nc(C2=NOCC(c3cc(F)c(Cl)c(F)c3)N2)ccc1-n1cnc(C)c1` (single isomer, unassigned; (+)) [Example 267B, (+)-5-(4-chloro-3,5-difluorophenyl)-3-(6-methoxy-5-(4-methyl-1H-imidazol-1-yl)pyridin-2-yl)-5,6-dihydro-4H-1,2,4-oxadiazine] yielded an EC50 of 0.0249 µM. `COc1nc(C2=NOCC(c3ccc(C(C)(C)O)cc3)N2)ccc1-n1cnc(C)c1` (single isomer, unassigned; (+)) [Example 268B, (+)-2-(4-(3-(6-methoxy-5-(4-methyl-1H-imidazol-1-yl)pyridin-2-yl)-5,6-dihydro-4H-1,2,4-oxadiazin-5-yl)phenyl)propan-2-ol] was tested, and the EC50 was 0.27 µM. In the case of `COc1nc(C2=NOCC(c3cnc4ccc(Cl)cn34)N2)ccc1-n1cnc(C)c1` (single isomer, unassigned; (+)) [Example 269B, (+)-5-(6-chloroimidazo[1,2-a]pyridin-3-yl)-3-(6-methoxy-5-(4-methyl-1H-imidazol-1-yl)pyridin-2-yl)-5,6-dihydro-4H-1,2,4-oxadiazine], the EC50 is reported as 0.24 µM. For `COc1nc(C2=NOCC(c3ccc(Cl)c(C(F)F)c3)N2)ccc1-n1cnc(C)c1` (single isomer, unassigned; (+)) [Example 270B, (+)-5-(4-chloro-3-(difluoromethyl)phenyl)-3-(6-methoxy-5-(4-methyl-1H-imidazol-1-yl)pyridin-2-yl)-5,6-dihydro-4H-1,2,4-oxadiazine], the EC50 was 0.0214 µM.
